Holding throughout (format): cell-based, human
Common to all, as to settings: Homo sapiens

One assay concerns H1650. In words: Non Small Cell Lung Cancer proliferation assay (Alamar Blue reduction), H1650. The procedure: (§1) These cells have a doubling time of 1-2 days. All cell types are adherent and grow in colonies. The cells should be kept at a density between 50,000 cells/mL -500,000 cells/mL to provide for optimum growth and adequate nutrition. The cell line should be maintained at 37° C. in a humidified atmosphere with 5% CO2 in a sterile cell culture incubator.
(§2) Non Small Cell Lung Cancer Proliferation Assay.
(§3) High Controls for this assay are made by treating Non Small Cell Lung Cancer cells with 5 ul of 10% DMSO. [Final concentration in this assay is 1% DMSO].
(§4) Important Note: All compounds for testing in this assay should be done at the final concentration of 1% DMSO.
(§5) After addition, the cells are placed in cell culture incubator at 37° C. for 48 hours for complete treatment.
(§6) After drug treatment, cytotoxicity is measured by Alamar Blue reduction.
(§7) The cells are incubated for 48 hours at 37° C. to complete the Alamar Blue reduction.
(§8) The final step in the assay is to measure the amount of Alamar Blue reduction. […] The Alamar Blue fluorescence is measured at an excitation of 530 nm and emission of 590 nm.
(§9) For the NSCLC project, the cell based assay was screened against a small molecule library of approximately 200,000 compounds. The compound library is stored in our automated robotic freezer (Biophile) at −20° C. in 100% DMSO. Compound freeze and thaw cycles are kept to a minimum. […] This assay was performed on a fully automated linear track robotic platform (CRS F3 Robot System, Thermo Electron Corp., Ontario, Canada) utilizing several integrated peripherals for plate handling, liquid dispensing, and readout detection. […] The microplates are then placed at 37° C. for 48 hours to complete treatment of cells with compounds. Next, 5 ul of alamar blue was added using a liquid dispenser (Flexprop Precision Dispenser, Perkin Elmer, Mass., USA) and incubated for 48 hours at 37° C. The alamar blue prompt fluorescence was measured on Victor V (Victor^3 V, Perkin Elmer, Mass., USA) and output data files were loaded into ORIS (Oncology Research Informatics System, MSKCC, NY, USA), a screening data acquisition and analysis platform.
(§10) The dose response studies were done with the following standard procedure. First, the cells were counted and dispensed at 250 cells/well into 384-well microplates with compound. The cells were incubated for 48 hours at 37 C to complete treatment, and then alamar blue was added for an additional 48 hours. Finally, alamar blue reduction was measured and the data was loaded into ORIS, our data screening acquisition platform.
Background: The colour change of resazurin is a common sign of viable cells or microbes.

The subject of another assay is H2030. Kind of assay: Non Small Cell Lung Cancer proliferation assay (Alamar Blue reduction), H2030. How it is done: as §1, §2, §3, §4, §5, §6, §7, §8, §9, §10
The next assay deals with H1975. Kind of assay: Non Small Cell Lung Cancer proliferation assay (Alamar Blue reduction), H1975. The procedure:
as §1, §2, §3, §4, §5, §6, §7, §8, §9, §10

Another assay deals with H3255. Kind of assay: Non Small Cell Lung Cancer proliferation assay (Alamar Blue reduction), H3255. How it is done:
as §1, §2, §3, §4, §5, §6, §7, §8, §9, §10

Where [1] appears, read: NCI-H1650, primary screening, 10 μM compound in 1% DMSO (v/v), read-out: percentage inhibition H1650.
Setting [2] is: NCI-H2030, primary screening, 10 μM compound in 1% DMSO (v/v), read-out: percentage inhibition H2030.
Setting [3] is: NCI-H1975, primary screening, 10 μM compound in 1% DMSO (v/v), read-out: percentage inhibition H1975.
Where [4] appears, read: NCI-H3255, primary screening, 10 μM compound in 1% DMSO (v/v), read-out: percentage inhibition H3255.
Where [5] appears, read: NCI-H1650, primary screening, H1650, 10 μM compound in 1% DMSO (v/v), read-out: PRIMARY HTS [%] H1650 (percentage inhibition).
Setting [6] is: NCI-H2030, primary screening, H2030, 10 μM compound in 1% DMSO (v/v), read-out: PRIMARY HTS [%] H2030 (percentage inhibition).
Setting [7] is: NCI-H1975, primary screening, H1975, 10 μM compound in 1% DMSO (v/v), read-out: PRIMARY HTS [%] H1975 (percentage inhibition).
Setting [8] is: NCI-H3255, primary screening, H3255, 10 μM compound in 1% DMSO (v/v), read-out: PRIMARY HTS [%] H3255 (percentage inhibition).

Where two headings read alike, the source gives them in different places.

As a reminder, the inhibition is the relative decrease from the control value, in per cent. With `O=c1c(Cl)c(N2CCN(CCO)CC2)cnn1-c1cccc(Cl)c1` [compound 194617], the inhibition at 10 µM was -9% with H1650 (setting [1]), -4% in the assay on H2030 (setting [2]), 9% in the assay with H1975 (setting [3]) and -5% with H3255 (setting [4]).
For `COc1ccc(-n2nc(C(=O)c3ccccc3)cc(-c3nc4ccccc4[nH]3)c2=N)cc1` [compound 193067] the same measures were -7%, 4%, 21% and -35%.
For `Cc1ccc(-n2ncc(SCc3ccccc3)c(Cl)c2=O)cc1` [compound 182830], in that order: 20%, 3%, 10% and -4%.
In the case of `CN1CCN(Cc2ccc([N+](=O)[O-])o2)CC1` [compound 100652], the inhibition at 10 µM is -12% in the assay on H1650 (setting [5]), -6% in the assay with H2030 (setting [6]), -2% with H1975 (setting [7]) and -3% with H3255 (setting [8]).
`O=C(COc1cnn(-c2ccccc2)c(=O)c1Cl)c1ccccc1` [compound 199759]: the inhibition at 10 µM in the assay on H1650 (setting [1]) was determined as 16%; in the assay on H2030 (setting [2]), 9%; in the assay on H1975 (setting [3]), 36%; with H3255 (setting [4]), 66%.
On to `O=C(c1ccc([N+](=O)[O-])o1)N1CCc2ccccc21` [compound 100403], for which the inhibition at 10 µM in the assay with H1650 (setting [5]) is -13%; in the assay on H2030 (setting [6]) it was 3%; in the assay on H1975 (setting [7]), -13%; in the assay with H3255 (setting [8]), 2%.
On to `O=C(Nc1ccc(I)cc1)c1ccc([N+](=O)[O-])o1` [compound 103710], for which the inhibition at 10 µM in the assay on H1650 (NCI-H1650, read-out: PRIMARY HTS [%] H1650 (percentage inhibition)) was 33%; with H2030 (NCI-H2030, read-out: PRIMARY HTS [%] H2030 (percentage inhibition)), -5%; in the assay with H1975 (NCI-H1975, read-out: PRIMARY HTS [%] H1975 (percentage inhibition)), 17%; in the assay with H3255 (NCI-H3255, read-out: PRIMARY HTS [%] H3255 (percentage inhibition)) it was 4%.
For `O=c1c(SCc2ccco2)c(SCc2ccco2)cnn1-c1ccccc1` [compound 195071], the inhibition at 10 µM in the assay on H1650 (setting [1]) was determined as 71%; in the assay on H2030 (setting [2]), 9%; in the assay on H1975 (setting [3]), 77%; with H3255 (setting [4]), 82%.
For `O=C(Nc1ccc(N2CCN(Cc3ccccc3)CC2)cc1)c1ccco1` [compound 93911], the inhibition at 10 µM with H1650 (setting [5]) was -4%; in the assay on H2030 (setting [6]), -3%; in the assay with H1975 (setting [7]), -22%; in the assay with H3255 (setting [8]) it was -1%.
For `CSc1cnn(-c2ccccc2)c(=O)c1Cl` [compound 104185], the inhibition at 10 µM in the assay on H1650 (setting [1]) is -9%; in the assay with H2030 (setting [2]), -2%; with H1975 (setting [3]), 22%; in the assay with H3255 (setting [4]) it was 1%.
For `Cc1ccccc1-n1ncc(SCc2ccccc2)c(Cl)c1=O` [compound 224765] the same measures were 7%, -15%, 1% and -12%.
For `O=C(Nc1c(Cl)cccc1Cl)c1cc2ccccc2o1` [compound 60998], the inhibition at 10 µM with H1650 (setting [5]) is 10%; in the assay on H2030 (setting [6]), 1%; with H1975 (setting [7]) it was 19%; in the assay with H3255 (setting [8]) it was 1%.
For `O=c1c(SCc2ccccc2Cl)c(SCc2ccccc2Cl)cnn1-c1ccccc1` [compound 208695], the inhibition at 10 µM is -14% with H1650 (setting [1]), -11% in the assay with H2030 (setting [2]), -13% in the assay on H1975 (setting [3]) and -2% with H3255 (setting [4]).
For `CN(C)c1c(Cl)cnn(-c2ccccc2)c1=O` [compound 103911] the same measures were -7%, -5%, -12% and -3%.
Turning to `O=C(Nc1ccc(Cl)cc1)c1cc2c(ccc3ccccc32)o1` [compound 77021], the inhibition at 10 µM in the assay on H1650 (setting [5]) is 16%; in the assay with H2030 (setting [6]), -1%; in the assay with H1975 (setting [7]), -11%; in the assay on H3255 (setting [8]), 4%.
In the case of `CCOC(=O)C(C)Oc1ccc(=O)n(-c2ccccc2)n1` (stereo not drawn) [compound 185423], the inhibition at 10 µM with H1650 (setting [1]) is 16%; with H2030 (setting [2]), 3%; with H1975 (setting [3]), -9%; in the assay on H3255 (setting [4]), 23%.
In the case of `O=c1c(SCc2ccccc2)c(SCc2ccccc2)cnn1-c1ccc(Br)cc1` [compound 208699], the inhibition at 10 µM in the assay on H1650 (setting [1]) is -12%; with H2030 (setting [2]), 10%; in the assay with H1975 (setting [3]), -22%; in the assay on H3255 (setting [4]), 19%.
For `COc1cc(Cl)nn(-c2ccccc2)c1=O` [compound 206569], in that order: -2%, 7%, 3% and 22%.
For `COc1cnn(-c2ccc(C)cc2)c(=O)c1SCc1ccccc1` [compound 208694] the same measures were -21%, 3%, -29% and -16%.
Take `Nc1ccc(Sc2cnn(-c3ccccc3)c(=O)c2Cl)cc1` [compound 181612]: the inhibition at 10 µM in the assay on H1650 (setting [1]) was 7%; with H2030 (setting [2]), 11%; in the assay on H1975 (setting [3]), -11%; in the assay on H3255 (setting [4]) it was 11%.
With `O=c1c(Cl)c(SC(c2ccccc2)c2ccccc2)cnn1-c1ccccc1` [compound 208697], the inhibition at 10 µM is -3% in the assay with H1650 (setting [1]), 4% with H2030 (setting [2]), -16% with H1975 (setting [3]) and 31% in the assay on H3255 (setting [4]).
For `COc1cnn(-c2cccc(C(F)(F)F)c2)c(=O)c1Cl` [compound 103872], the inhibition at 10 µM was 17% in the assay with H1650 (setting [1]), 2% in the assay on H2030 (setting [2]), 9% with H1975 (setting [3]) and -25% in the assay on H3255 (setting [4]).
For `O=c1c(Cl)c(Cl)cnn1-c1cccc(Cl)c1` [compound 104188], in that order: -13%, -4%, 102% and 4%.
For `Cc1ccccc1-n1nc(C(=O)c2cccs2)cc(-c2nc3ccccc3[nH]2)c1=N` [compound 186018] the same measures were 42%, 4%, -4% and 35%.
Consider `O=C(Nc1ccc(NC(=O)c2ccc(Cl)cc2Cl)cc1)c1ccco1` [compound 72456], for which the inhibition at 10 µM worked out at 12% in the assay with H1650 (setting [5]), 8% in the assay with H2030 (setting [6]), 9% in the assay with H1975 (setting [7]) and 7% with H3255 (setting [8]).
As to `O=c1c(Cl)c(Cl)c(Cl)nn1-c1ccc(Br)cc1` [compound 202245], the inhibition at 10 µM in the assay with H1650 (setting [1]) was 48%; in the assay with H2030 (setting [2]), -8%; in the assay with H1975 (setting [3]), 96%; with H3255 (setting [4]), 71%.
For `CSc1cnn(-c2ccccc2)c(=O)c1SC` [compound 104423], in that order: -11%, -3%, -20% and 1%.

For the origin of these results see US20100210649A1, “PYRIDAZINONES AND FURAN-CONTAINING COMPOUNDS” (Sloan-Kettering Institute for Cancer Research, priority 2006, published 2010).
